Measured values published in PMC9944328 (Nature Communications, 2023).
“And” between values parts separate entries of the source, which are not always exact repeats. Equal values may be shown once.

Molecular target: SSTR2 (Homo sapiens, UniProt P30874)
Test: SSTRs Gi-mediated cAMP inhibition, GloSensor, HEK293, 5 μM forskolin, 15 min room temperature (SSTR2 wild-type);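 for Bottom (best-fit value): normalized to the maximal wild-type response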;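 for Bottom (best-fit): normalized to the maximal wild-type response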;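 for Span (best-fit value), cAMP inhibition: normalized to the maximal wild-type response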;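 for Span (best-fit value): normalized to the maximal wild-type response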;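 for Span (best-fit): normalized to the maximal wild-type response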;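 for Span: normalized to the maximal wild-type response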;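 for Top (best-fit): normalized to the maximal wild-type response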
Assay type: cell-based
Parameters: Best-fit Top, cAMP inhibition / Span, cAMP inhibition / Best-fit Bottom / Best-fit Top / Best-fit Span / Bottom / Span (best-fit value), cAMP inhibition / Top (best-fit value), cAMP inhibition: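 normalized to the maximal wild-type response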
Settings: for Bottom (best-fit value) / LogEC50 (best-fit value) / Span (best-fit value) / Top (best-fit value): Y205A panel
Protocol: The levels of the intracellular 3′, 5′-cyclic AMP (cAMP) were measured by the GloSensor cAMP assay (Promega) as described in the previous studies[28],[41] which has been widely used. The human full-length SSTRs and mutants were cloned into the pcDNA3.1+ vector with a HA signal sequence followed by a Flag tag at the N-terminus. HEK293 cells (ATCC, CRL-1573) were seeded into 6-well microplates at a density of 1.0 × 10^6 cells/well and cultured for 24 h at 37 °C with 5% CO2. Cells were then co-transfected with SSTR wild-type or mutants and GloSensor plasmids. After 24 h of transfection, the cells were dissociated with TrypLE™ Express Enzyme (1X) (Thermo Fisher Scientific) and collected by centrifugation at 500 × g for 5 min. Then the collected cells were suspended in Hank’s balanced salt solution [HBSS (Thermo Fisher Scientific)] supplemented with […] (YEASEN), and then the suspension cells were seeded into 96-well plates with 90 μl/well. After incubating at room temperature for 40 min, 5 μM forskolin and ligands diluted in HBSS were added to each well and the plates were incubated at room temperature for 15 min. […] were measured using the Synergy H1 microplate reader (BioTek) and the data presented are means of at least three independent experiments.

[1] = WT-2 (run 2 of each mutant's batch)
[2] = WT-3 (run 3 of each mutant's batch)
[3] = cAMP inhibition best-fit, D122A set, WT-1
[4] = cAMP inhibition best-fit, D122A set, WT-2
[5] = cAMP inhibition best-fit, D122A set, WT-3
[6] = cAMP inhibition best-fit, F127A set, WT-1
[7] = cAMP inhibition best-fit, F127A set, WT-2
[8] = cAMP inhibition best-fit, F127A set, WT-3
[9] = cAMP inhibition best-fit, I130A set, WT-1
[10] = cAMP inhibition best-fit, I130A set, WT-2
[11] = cAMP inhibition best-fit, I130A set, WT-3
[12] = cAMP inhibition best-fit, Q102A set, WT-1
[13] = cAMP inhibition best-fit, Q102A set, WT-2
[14] = cAMP inhibition best-fit, Q102A set, WT-3
[15] = cAMP inhibition best-fit, Q126A set, WT-1
[16] = cAMP inhibition best-fit, Q126A set, WT-2
[17] = cAMP inhibition best-fit, Q126A set, WT-3
[18] = cAMP inhibition best-fit, V103A set, WT-1
[19] = cAMP inhibition best-fit, V103A set, WT-2
[20] = cAMP inhibition best-fit, V103A set, WT-3

Sequence of SSTR2 (P30874 whole entry): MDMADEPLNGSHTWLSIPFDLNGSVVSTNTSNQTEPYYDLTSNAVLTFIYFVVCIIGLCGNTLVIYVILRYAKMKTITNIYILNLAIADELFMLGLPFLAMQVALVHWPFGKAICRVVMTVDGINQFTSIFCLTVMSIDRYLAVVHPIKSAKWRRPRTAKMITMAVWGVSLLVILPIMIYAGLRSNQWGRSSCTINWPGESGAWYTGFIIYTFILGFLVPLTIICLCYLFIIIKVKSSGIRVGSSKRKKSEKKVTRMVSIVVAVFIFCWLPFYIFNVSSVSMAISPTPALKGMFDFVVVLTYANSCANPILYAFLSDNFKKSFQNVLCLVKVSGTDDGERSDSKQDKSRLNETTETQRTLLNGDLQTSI

For `N#Cc1cccc(-c2ccc3ncc(-c4cc(F)cc(F)c4)c(N4CCC(N)CC4)c3c2)c1O` [paltusotine], the “Span (best-fit)” value (WT-1, run paired with T194H) was 111, the “Top (best-fit)” value (WT-1, run paired with T194H) was 106.2 and the “Bottom (best-fit)” value (WT-1, run paired with V103N) was 16.51. The LogEC50 (WT-1, run paired with V103N) was -8.678, the “Span (best-fit)” value (WT-1, run paired with V103N) was 89.51 and the “Top (best-fit)” value (WT-1, run paired with V103N) was 106. The LogEC50 (WT-1, run paired with Y205R) was -9.27, the “Span (best-fit)” value (WT-1, run paired with Y205R) was 108.3 and the “Top (best-fit)” value (WT-1, run paired with Y205R) was 106.3. The “Span (best-fit value), cAMP inhibition” value [1] was 111.8 and 113.8 and 107.7 and 112.3, the “Top (best-fit value), cAMP inhibition” value [1] was 108 and 108.3 and 107.8 and 112.4 and the “Bottom (best-fit)” value (WT-2, run paired with D295F) was -1.411. The LogEC50 (WT-2, run paired with D295F) was -9.3, the “Span (best-fit)” value (WT-2, run paired with D295F) was 105.2 and the “Top (best-fit)” value (WT-2, run paired with D295F) was 103.8. For the same compound, the “Bottom (best-fit)” value (WT-2, run paired with F294Y) was -1.411, the LogEC50 (WT-2, run paired with F294Y) was -9.3 and the “Span (best-fit)” value (WT-2, run paired with F294Y) was 105.2. The “Top (best-fit)” value (WT-2, run paired with F294Y) was 103.8, the “Bottom (best-fit)” value (WT-2, run paired with I195M) was 10.59 and the LogEC50 (WT-2, run paired with I195M) was -8.695. For the same compound, the “Span (best-fit)” value (WT-2, run paired with I195M) was 88.58, the “Top (best-fit)” value (WT-2, run paired with I195M) was 99.16 and the “Bottom (best-fit)” value (WT-2, run paired with T194H) was -0.3773. For the same compound, the LogEC50 (WT-2, run paired with T194H) was -8.796, the “Span (best-fit)” value (WT-2, run paired with T194H) was 113.8 and the “Top (best-fit)” value (WT-2, run paired with T194H) was 113.4. The “Bottom (best-fit)” value (WT-2, run paired with V103N) was 8.218, the LogEC50 (WT-2, run paired with V103N) was -8.87 and the “Span (best-fit)” value (WT-2, run paired with V103N) was 100.4. The “Top (best-fit)” value (WT-2, run paired with V103N) was 108.6, the LogEC50 (WT-2, run paired with Y205R) was -9.271 and the “Span (best-fit)” value (WT-2, run paired with Y205R) was 104.8. For the same compound, the “Top (best-fit)” value (WT-2, run paired with Y205R) was 105.4, the “Span (best-fit value), cAMP inhibition” value [2] was 106.7 and 111.8 and 113.8 and 112.4 and 113.7 and the “Top (best-fit value), cAMP inhibition” value [2] was 107.8 and 108 and 112 and 113.6. For the same compound, the “Bottom (best-fit)” value (WT-3, run paired with D295F) was 12.84, the LogEC50 (WT-3, run paired with D295F) was -8.964 and the “Span (best-fit)” value (WT-3, run paired with D295F) was 85.7. For the same compound, the “Top (best-fit)” value (WT-3, run paired with D295F) was 98.54, the “Bottom (best-fit)” value (WT-3, run paired with F294Y) was -4.818 and the LogEC50 (WT-3, run paired with F294Y) was -8.937. For the same compound, the “Span (best-fit)” value (WT-3, run paired with F294Y) was 111, the “Top (best-fit)” value (WT-3, run paired with F294Y) was 106.2 and the “Bottom (best-fit)” value (WT-3, run paired with T194H) was 8.218. For the same compound, the LogEC50 (WT-3, run paired with T194H) was -8.87, the “Span (best-fit)” value (WT-3, run paired with T194H) was 100.4 and the “Top (best-fit)” value (WT-3, run paired with T194H) was 108.6. For the same compound, the “Bottom (best-fit)” value (WT-3, run paired with V103N) was -2.506, the LogEC50 (WT-3, run paired with V103N) was -8.966 and the “Span (best-fit)” value (WT-3, run paired with V103N) was 107.7. The “Top (best-fit)” value (WT-3, run paired with V103N) was 105.2, the LogEC50 (WT-3, run paired with Y205R) was -8.678 and the “Span (best-fit)” value (WT-3, run paired with Y205R) was 89.51. For the same compound, the “Top (best-fit)” value (WT-3, run paired with Y205R) was 106, the “Bottom (best-fit value)” value (WT-1 (run 1)) was -1.411 and the “LogEC50 (best-fit value)” value (WT-1 (run 1)) was -9.3. The “Span (best-fit value)” value (WT-1 (run 1)) was 105.2, the “Top (best-fit value)” value (WT-1 (run 1)) was 103.8 and the “Bottom (best-fit value)” value (WT-2 (run 2)) was 7.891. The “LogEC50 (best-fit value)” value (WT-2 (run 2)) was -9.109, the “Span (best-fit value)” value (WT-2 (run 2)) was 96.39 and the “Top (best-fit value)” value (WT-2 (run 2)) was 104.3. For the same compound, the “Bottom (best-fit value)” value (WT-3 (run 3)) was 0.01788, the “LogEC50 (best-fit value)” value (WT-3 (run 3)) was -8.988 and the “Span (best-fit value)” value (WT-3 (run 3)) was 104.7. The “Top (best-fit value)” value (WT-3 (run 3)) was 104.8, the Bottom [3] was -4.038 and the LogEC50 [3] was -8.63. The Span [3] was 111.8, the Top [3] was 107.8 and the Bottom [4] was -5.769. It also gave a LogEC50 [4] of -8.575, a Span [4] of 113.8 and a Top [4] of 108. It also gave a Bottom [5] of -1.411, a LogEC50 [5] of -9.3 and a Span [5] of 105.2. It also gave a Top [5] of 103.8, a Bottom [6] of -0.438 and a LogEC50 [6] of -8.811. The Span [6] was 112.4, the Top [6] was 112 and the Bottom [7] was -4.818. It also gave a LogEC50 [7] of -8.937, a Span [7] of 111 and a Top [7] of 106.2. For the same compound, the Bottom [8] was -0.9578, the LogEC50 [8] was -9.526 and the Span [8] was 107.3. It also gave a Top [8] of 106.4, a Bottom [9] of -3.466 and a LogEC50 [9] of -9.53. For the same compound, the Span [9] was 116.5, the Top [9] was 113 and the Bottom [10] was -6.932. It also gave a LogEC50 [10] of -9.494, a Span [10] of 126.2 and a Top [10] of 119.3. For the same compound, the Bottom [11] was -3.016, the LogEC50 [11] was -8.949 and the Span [11] was 106.8. The Top [11] was 103.7, the LogEC50 [12] was -9.218 and the Span [12] was 100.2. For the same compound, the Top [12] was 103.5, the LogEC50 [13] was -8.923 and the Span [13] was 98.67. For the same compound, the Top [13] was 106.5, the LogEC50 [14] was -8.998 and the Span [14] was 106.7. For the same compound, the Top [14] was 106.1, the Bottom [15] was 7.891 and the LogEC50 [15] was -9.109. It also gave a Span [15] of 96.39, a Top [15] of 104.3 and a Bottom [16] of -2.459. The LogEC50 [16] was -8.801, the Span [16] was 121.7 and the Top [16] was 119.3. The Bottom [17] was 2.655, the LogEC50 [17] was -9.073 and the Span [17] was 104.2. For the same compound, the Top [17] was 106.8, the Bottom [18] was -2.459 and the LogEC50 [18] was -8.801. It also gave a Span [18] of 121.7, a Top [18] of 119.3 and a Bottom [19] of 3.281. The LogEC50 [19] was -9.218, the Span [19] was 100.2 and the Top [19] was 103.5. The Bottom [20] was 7.801, the LogEC50 [20] was -8.923 and the Span [20] was 98.67. The Top [20] was 106.5.
